In brackets after ≈: the same amount, converted by molar mass. Like-named read-outs stand apart in the source and are kept apart here.
Legend:
[1] = tested on: Strep. pyogenes R80/421-A; experiment: MIC against human bacteria in vitro; format: cell-based; settings: Streptococcus pyogenes; Strep. pyogenes R80/421-A; 5% chocolated horse blood agar, 18 hours; read-out: MIC
[2] = tested on: Staph. aureus W2827; experiment: MIC against human bacteria in vitro; format: cell-based; settings: Staphylococcus aureus; Staph. aureus W2827; 5% chocolated horse blood agar, 18 hours; read-out: MIC
[3] = tested on: Haemophilus influenzae Wy21; experiment: MIC against human bacteria in vitro; format: cell-based; settings: Haemophilus influenzae Wy21; 5% chocolated horse blood agar, 18 hours; read-out: MIC
[4] = tested on: Sarcina lutea 8340; experiment: MIC against human bacteria in vitro; format: cell-based; settings: Micrococcus luteus; Sarcina lutea 8340; 5% chocolated horse blood agar, 18 hours; read-out: MIC
[5] = tested on: Neisseria catarrhalis 1502; experiment: MIC against human bacteria in vitro; format: cell-based; settings: Neisseria catarrhalis 1502; 5% chocolated horse blood agar, 18 hours; read-out: MIC
[6] = tested on: E. coli E1; experiment: MIC against veterinary bacteria in vitro; settings: Escherichia coli, E1, 18 h
Method: (§1) The activity of the compounds of the Examples against various veterinarily important bacteria, was assayed in vitro using two-fold serial dilutions in Diagnostic Sensitivity Test Agar inoculated with 10^4 organisms.

[7] = tested on: S. dublin S7; experiment: MIC against veterinary bacteria in vitro; settings: Salmonella enterica, S7, 18 h
Method: as §1

[8] = tested on: E. coli NCTC 10418; experiment: MIC against veterinary bacteria in vitro; settings: Escherichia coli, NCTC10418, 18 h
Method: as §1

[9] = tested on: M. bovigenitalium ATCC 14173; experiment: MIC against mycoplasma in vitro; format: cell-based; settings: 144 h
[10] = tested on: M. suipneumoniae TAM 6N; experiment: MIC against mycoplasma in vitro; format: cell-based; settings: Mesomycoplasma hyopneumoniae, TAM6N, 144 h
[11] = tested on: Staph. aureus 152 (pen. sens); experiment: MIC against veterinary bacteria in vitro; settings: Staphylococcus aureus, 18 h
Method: as §1

[12] = tested on: P. mirabilis 889; experiment: MIC against human bacteria in vitro; format: cell-based
[13] = tested on: M. suipneumoniae UCD 1; experiment: MIC against mycoplasma in vitro; format: cell-based; settings: Mesomycoplasma hyopneumoniae, UCD1, 144 h
[14] = tested on: E. coli NCTC 10418; experiment: MIC against human bacteria in vitro; format: cell-based; settings: Escherichia coli
[15] = tested on: Ps. aeruginosa NCTC 10662; experiment: MIC against human bacteria in vitro; format: cell-based; settings: Pseudomonas aeruginosa, NCTC10662; Ps. aeruginosa NCTC 10662; 5% chocolated horse blood agar, 18 hours; read-out: MIC
[16] = tested on: Corynebacterium xerosis 9755; experiment: MIC against human bacteria in vitro; format: cell-based; settings: Corynebacterium xerosis 9755; 5% chocolated horse blood agar, 18 hours; read-out: MIC
[17] = tested on: Staph. aureus Russell; experiment: MIC against human bacteria in vitro; format: cell-based; settings: Staphylococcus aureus; Staph. aureus Russell; 5% chocolated horse blood agar, 18 hours; read-out: MIC
[18] = tested on: M. gallisepticum S6; experiment: MIC against mycoplasma in vitro; format: cell-based; settings: Mycoplasmoides gallisepticum, 144 h; M. gallisepticum S6; 6 days, 37° C.; read-out: MIC
[19] = tested on: Past. multocida PA2; experiment: MIC against veterinary bacteria in vitro; settings: Pasteurella multocida, PA2, 18 h
Method: as §1

[20] = tested on: M. suipneumoniae MS 16; experiment: MIC against mycoplasma in vitro; format: cell-based; settings: Mesomycoplasma hyopneumoniae, MS16, 144 h
[21] = tested on: M. dispar NCTC 10125; experiment: MIC against mycoplasma in vitro; format: cell-based; settings: 144 h; M. dispar NCTC 10125; 6 days, 37° C.; read-out: MIC
[22] = tested on: Strep. pneumoniae CN33; experiment: MIC against human bacteria in vitro; format: cell-based; settings: Streptococcus pneumoniae
[23] = tested on: M. suipneumoniae NCTC 10110; experiment: MIC against mycoplasma in vitro; format: cell-based; settings: Mesomycoplasma hyopneumoniae, NCTC10110, 144 h
[24] = tested on: M. suipneumoniae JF 435; experiment: MIC against mycoplasma in vitro; format: cell-based; settings: Mesomycoplasma hyopneumoniae, JF435, 144 h
[25] = tested on: Strep. agalactiae SPA1; experiment: MIC against veterinary bacteria in vitro; settings: Streptococcus agalactiae, SPA1, 18 h
Method: as §1

[26] = tested on: Strep. agalactiae 2788-B; experiment: MIC against human bacteria in vitro; format: cell-based; settings: Streptococcus agalactiae; Strep. agalactiae 2788-B; 5% chocolated horse blood agar, 18 hours; read-out: MIC
[27] = tested on: M. hyorhinis ATCC 25021; experiment: MIC against mycoplasma in vitro; format: cell-based; settings: Mesomycoplasma hyorhinis, ATCC25021, 144 h
[28] = tested on: Strep. suis (group D) SPS11; experiment: MIC against veterinary bacteria in vitro; settings: Streptococcus suis, 18 h
Method: as §1

[29] = tested on: M. suipneumoniae PW/C/210; experiment: MIC against mycoplasma in vitro; format: cell-based; settings: Mesomycoplasma hyopneumoniae, 144 h
[30] = tested on: M. suipneumoniae Str. 11; experiment: MIC against mycoplasma in vitro; format: cell-based; settings: Mesomycoplasma hyopneumoniae
[31] = tested on: Staph. aureus Oxford; experiment: MIC against human bacteria in vitro; format: cell-based; settings: Staphylococcus aureus; Staph. aureus Oxford; 5% chocolated horse blood agar, 18 hours; read-out: MIC
[32] = tested on: M. suipneumoniae NB12; experiment: MIC against mycoplasma in vitro; format: cell-based; settings: Mesomycoplasma hyopneumoniae
[33] = tested on: M. suipneumoniae ATCC 25095; experiment: MIC against mycoplasma in vitro; format: cell-based; settings: Mesomycoplasma hyopneumoniae, ATCC25095, 144 h
[34] = tested on: Past. multocida PA1; experiment: MIC against veterinary bacteria in vitro; settings: Pasteurella multocida, PA1, 18 h
Method: as §1

[35] = tested on: Past. haemolytica PA5; experiment: MIC against veterinary bacteria in vitro; settings: Mannheimia haemolytica, PA5, 18 h
Method: as §1

SMILES: C/C(=C\c1nc(-c2ccccc2)c(-c2ccccc2)o1)C[C@@H]1OC[C@H](C[C@@H]2O[C@H]2[C@@H](C)[C@H](C)O)[C@@H](O)[C@H]1O [Example 41, 4,5-Diphenyl-2-(1-normon-2-yl)oxazole A]
- MIC [1]: > 100 µg/mL
- MIC [2]: > 100 µg/mL
- MIC [3]: 25 µg/mL (≈ 48.1 µM)
- MIC [4]: > 100 µg/mL
- MIC [5]: 25 µg/mL (≈ 48.1 µM)
- MIC [6]: > 80 µg/mL
- MIC [7]: > 80 µg/mL
- MIC [8]: > 80 µg/mL
- MIC ([9]; M. bovigenitalium ATCC 14173, 6 days, 37° C., read-out: MIC): 5 µg/mL (≈ 9.62 µM)
- MIC ([10]; M. suipneumoniae TAM 6N, 6 days, 37° C., read-out: MIC): > 10 µg/mL
- MIC [11]: 40 µg/mL (≈ 77 µM)
- MIC ([12]; Proteus mirabilis, 889, 18 h): > 100 µg/mL
- MIC ([13]; M. suipneumoniae UCD 1, 6 days, 37° C., read-out: MIC): > 10 µg/mL
- MIC ([14]; NCTC10418, 18 h): > 100 µg/mL
- MIC [15]: > 100 µg/mL
- MIC [16]: > 100 µg/mL
- MIC [17]: > 100 µg/mL
- MIC [18]: > 10 µg/mL
- MIC [19]: 20 µg/mL (≈ 38.5 µM)
- MIC ([20]; M. suipneumoniae MS 16, 6 days, 37° C., read-out: MIC): > 10 µg/mL
- MIC [21]: > 10 µg/mL
- MIC ([22]; CN33, 18 h): > 100 µg/mL
- MIC ([23]; M. suipneumoniae NCTC 10110, 6 days, 37° C., read-out: MIC): > 10 µg/mL
- MIC ([24]; M. suipneumoniae JF 435, 6 days, 37° C., read-out: MIC): > 10 µg/mL
- MIC [25]: 40 µg/mL (≈ 77 µM)
- MIC [26]: > 100 µg/mL
- MIC ([27]; M. hyorhinis ATCC 25021, 6 days, 37° C., read-out: MIC): > 10 µg/mL
- MIC [28]: > 80 µg/mL
- MIC ([29]; M. suipneumoniae PW/C/210, 6 days, 37° C., read-out: MIC): > 10 µg/mL
- MIC ([30]; 144 h, M. suipneumoniae Str. 11, 6 days, 37° C., read-out: MIC): > 10 µg/mL
- MIC [31]: 100 µg/mL (≈ 192 µM)
- MIC ([32]; 144 h, M. suipneumoniae NB12, Friis broth, 0.9% agarose, 6 days, 37° C., read-out: MIC): > 10 µg/mL
- MIC ([33]; M. suipneumoniae ATCC 25095, 6 days, 37° C., read-out: MIC): > 10 µg/mL
- MIC [34]: 40 µg/mL (≈ 77 µM)
- MIC [35]: > 80 µg/mL

SMILES: C/C(=C\c1ncc(C)o1)C[C@@H]1OC[C@H](C[C@@H]2O[C@H]2[C@@H](C)[C@H](C)O)[C@@H](O)[C@H]1O [Example 14, 5-Methyl-2-(1-normon-2-yl) oxazole A]
- MIC [1]: 32 µg/mL (≈ 83.9 µM)
- MIC [2]: 16 µg/mL (≈ 41.9 µM)
- MIC [3]: 2 µg/mL (≈ 5.24 µM)
- MIC [4]: > 128 µg/mL
- MIC [5]: 16 µg/mL (≈ 41.9 µM)
- MIC [6]: > 80 µg/mL
- MIC [7]: > 80 µg/mL
- MIC [8]: > 80 µg/mL
- MIC [9]: 0.1 µg/mL (≈ 0.262 µM)
- MIC [10]: 5 µg/mL (≈ 13.1 µM)
- MIC [11]: 10 µg/mL (≈ 26.2 µM)
- MIC ([12]; Proteus mirabilis, P. mirabilis 889, 5% chocolated horse blood agar, 18 hours, read-out: MIC): > 128 µg/mL
- MIC [13]: 5 µg/mL (≈ 13.1 µM)
- MIC ([14]; NCTC10418, E. coli NCTC 10418, agar with 5% chocolated horse blood, 18 hours, 37° C., read-out: MIC): > 128 µg/mL
- MIC [15]: > 128 µg/mL
- MIC [16]: > 128 µg/mL
- MIC [17]: 16 µg/mL (≈ 41.9 µM)
- MIC [18]: > 10 µg/mL
- MIC [19]: 10 µg/mL (≈ 26.2 µM)
- MIC [20]: 2.5 µg/mL (≈ 6.55 µM)
- MIC [21]: 0.5 µg/mL (≈ 1.31 µM)
- MIC ([22]; Strep. pneumoniae CN33, 5% chocolated horse blood agar, 18 hours, read-out: MIC): 32 µg/mL (≈ 83.9 µM)
- MIC [23]: 5 µg/mL (≈ 13.1 µM)
- MIC [24]: 5 µg/mL (≈ 13.1 µM)
- MIC [25]: > 80 µg/mL
- MIC [26]: 32 µg/mL (≈ 83.9 µM)
- MIC [27]: 2.5 µg/mL (≈ 6.55 µM)
- MIC [28]: > 80 µg/mL
- MIC [29]: 2.5 µg/mL (≈ 6.55 µM)
- MIC ([30]; STR.11, 144 h): 2.5 µg/mL (≈ 6.55 µM)
- MIC [31]: 16 µg/mL (≈ 41.9 µM)
- MIC ([32]; NB12, 144 h): 5 µg/mL (≈ 13.1 µM)
- MIC [33]: 2.5 µg/mL (≈ 6.55 µM)
- MIC [34]: 10 µg/mL (≈ 26.2 µM)
- MIC [35]: > 80 µg/mL

From patent US5041567A, “Antibacterial monic acid derivatives” (Beecham Group plc, priority 1982, dated 1991)
